Data: PMC2707017, “Synthesis and enzymatic evaluation of 2- and 4-aminothiazole-based inhibitors of neuronal nitric oxide synthase” (Beilstein Journal of Organic Chemistry, 2009)
One block for each compound: values may come before it.

Tests used:
rat nNOS [1] = biological target: T1, rat nNOS (Rattus norvegicus, UniProt P29476); details: cited from earlier work
bovine eNOS [2] = biological target: T2, bovine eNOS (Bos taurus, UniProt P29473); details: nNOS over eNOS; cited from earlier work
neuronal damage = test system: neuronal damage; set-up: method as in PMID 19235180; details: intravenous administration, cerebral palsy rabbit model; cited from earlier work
[3] = set-up: method as in printed; details: aminothiazole ring nitrogen; stated without measurement, ref not given; cited from earlier work
murine iNOS = murine iNOS (Mus musculus, UniProt P29477); assay: hemoglobin capture assay, iNOS
Protocol: (§1) The NOS isoforms used were recombinant enzymes overexpressed in E. coli. Rat nNOS [6], bovine eNOS [7], and murine macrophage iNOS [8], and were overexpressed and isolated as reported. The formation of nitric oxide was monitored using a hemoglobin capture assay as described previously. Briefly, a solution of nNOS or eNOS containing 10 µM L-arginine, 1.6 mM CaCl2, 11.6 µg/mL calmodulin, 100 µM DTT, 100 µM NADPH, 6.5 µM H4B, 125 µg/mL oxyhemoglobin, and varying concentrations of inhibitor in 100 mM Hepes (pH 7.4) was monitored at 30 °C. For the determination of inhibition of iNOS, no additional Ca^2+ or calmodulin were added. The assay was initiated by the addition of enzyme, and the absorption of UV light at 400 nm was recorded over one minute. As NO was evolved and coordinated to the hemoglobin, the absorption at 400 nm increased, producing a value for the enzyme velocity under these conditions. A value for the initial rate was obtained when no inhibitor was added (v0). The velocity of the enzyme (v) was then determined in the presence of varying concentrations of inhibitor, until a concentration of inhibitor that reduced the enzyme velocity to half its initial value (v/v0 ~ 0.5) was discovered. Concentrations of inhibitor above and below this value were tested and a graph of v/v0 versus inhibitor concentration ([I]) was plotted. […]

rat nNOS [4] = biological target: T1, rat nNOS; assay: hemoglobin capture assay, nNOS
Protocol: In vitro enzyme assay. The NOS isoforms used were recombinant enzymes overexpressed in E. coli. Rat nNOS [6], bovine eNOS [7], and murine macrophage iNOS [8], and were overexpressed and isolated as reported. The formation of nitric oxide was monitored using a hemoglobin capture assay as described previously. […] For the determination of inhibition of iNOS, no additional Ca^2+ or calmodulin were added. The assay was initiated by the addition of enzyme, and the absorption of UV light at 400 nm was recorded over one minute. As NO was evolved and coordinated to the hemoglobin, the absorption at 400 nm increased, producing a value for the enzyme velocity under these conditions. A value for the initial rate was obtained when no inhibitor was added (v0). The velocity of the enzyme (v) was then determined in the presence of varying concentrations of inhibitor, until a concentration of inhibitor that reduced the enzyme velocity to half its initial value (v/v0 ~ 0.5) was discovered. Concentrations of inhibitor above and below this value were tested and a graph of v/v0 versus inhibitor concentration ([I]) was plotted. Experiments were repeated at least three times and until a R^2 >0.99 was obtained. Extrapolation of this graph allowed the determination of an IC50 value. The Ki can be estimated from the IC50 if the Km for the substrate is known, using the equations below.

bovine eNOS [5] = biological target: T2, bovine eNOS; assay: hemoglobin capture assay, eNOS
Protocol: as §1

SMILES: NCCN[C@@H]1CNC[C@@H]1Cc1cccc(N)n1 (relative stereo) [Compound 1]
- nNOS inhibitory potency (rat nNOS [1]): nanomolar
- selectivity over eNOS (bovine eNOS [2]): more than 1000 fold

SMILES: Cc1cc(N)nc(C[C@H]2CNC[C@H]2NCCNCc2ccc(Cl)cc2)c1 (relative stereo) [Compound 2]
- protection against neuronal damage (neuronal damage): significant protection against neuronal damage

- Ki (murine iNOS): 50 µM
- Ki (rat nNOS [4]): 10 µM
- Ki (bovine eNOS [5]): 1000 µM
SMILES: Nc1nc(CC2CNCC2NCCNCc2ccc(Cl)cc2)cs1 (stereo not shown) [Compound 3]
- pKa of ring nitrogen [3]: ≈ 6
